Where two headings read alike, the source gives them in different places.
Legend:
UM-SCC-10B cells = assay: Colony forming assay, parental UM-SCC-10B; type: cell-based, human
Procedure: (§1) The UM-SCC-10B and UM-SCC-5 cell lines were derived from human squamous cell carcinomas of the in head and neck region. […] The sensitivity of the UM-SCC-10B and UM-SCC-5 cell lines and their cDDP-resistant variants to cDDP, TAM and the combination of both agents was tested by colony forming assay. Single-cell suspension were plated into 60 mm tissue culture dishes (Corning) at 300 cells per dish. […] Colonies were fixed with methanol, stained with Giemsa stain for 60 minutes, and counted manually.
(§2) Median effect analysis was used to assess the interaction between cDDP and TAM using a schedule of one hour exposure to cDDP and continuous exposure to TAM. After seeding the cells into 60 mm tissue culture dishes at 300 cells per dish in fresh medium and allowing 5 hours for them to attach, TAM was added. For the combined treatment, cDDP was added to the dishes 24 hours after seeding the cells. […] After incubation the dishes were washed twice with phosphate-buffered saline and fresh medium containing the appropriate concentration of TAM was added. In synergy experiments, dose-response curves for the single agents were initially generated. The extend of the combined treatment was then analyzed by the isobole method for a combination of cDDP and TAM from the equation

[1] = system: UM-SCC-5 head and neck carcinoma cells; assay: Development of cisplatin resistance with or without tamoxifen, UM-SCC-5 (clonogenic assay); type: cell-based, human
Procedure: (§3) The UM-SCC-10B and UM-SCC-5 cell lines were derived from human squamous cell carcinomas of the in head and neck region. Cells were cultured at 37° C. in humidified 5% CO2 in 150 cm^2 flasks (Corning, Corning, N.Y.) with RPMI 1640 medium (Mediatech Inc., Herndon, Va.) containing 10% fetal bovine serum (Gemini Bioproducts Inc., Calabasas, Calif.), 2 mM L-glutamine, 100 units/ml of penicillin and 100 μg/ml of streptomycin sulfate. The sensitivity of the UM-SCC-10B and UM-SCC-5 cell lines and their cDDP-resistant variants to cDDP, TAM and the combination of both agents was tested by colony forming assay. Single-cell suspension were plated into 60 mm tissue culture dishes (Corning) at 300 cells per dish. Following drug exposure, the cultures were washed twice with PBS to remove cDDP, 5 ml of fresh medium was added, and they were incubated for 13-15 days to allow formation of colonies. Colonies were fixed with methanol, stained with Giemsa stain for 60 minutes, and counted manually.
(§4) Cells were cultured in drug-free medium for two weeks prior to being tested for drug sensitivity.

[2] = system: UM-SCC-10B head and neck carcinoma cells; assay: Development of cisplatin resistance with or without tamoxifen, UM-SCC-10B (clonogenic assay); type: cell-based, human; settings: for effect on development of cisplatin resistance: tamoxifen present during selection, in words
Procedure: as §3, §4

T-289 melanoma cells = assay: Development of DDP resistance with or without TAM, T-289 (colony formation); type: cell-based, human
melanoma [3] = assay: Clinical trial: tumor response to DDP alone, then TAM/DDP after DDP resistance; type: in vivo, human (patients)
From the text: A complete response was defined as the complete disappearance of all evidence of disease for at least 4 weeks. A partial response was a decrease in the mean diameter of the target lesion by 50% or more lasting at least 4 weeks. A mixed response was a decrease in the diameter of some target lesions of 50% or more while others remained stable or increased in size. A stable disease was defined as a <50% decrease or <25% increase in the size of target lesions for at least 2 months without the growth or appearance of other lesions. A progressive disease was defined as an increase in the size of target lesions by 25% or more.
Patients were retreated every 3 weeks. […] Subsequent patients received an ondansetron-based regimen.

UM-SCC-5 cells = assay: Colony forming assay, parental UM-SCC-5; type: cell-based, human
Procedure: as §1, §2

[4] = human, in vivo
From the text: (§5) Entry requirements included histologically documented melanoma, measurable disease, signed informed consent, and no anti-tumor therapy during the previous 4 weeks. Patients were required to have normal hematologic and renal function, an ECOG performance status of 0-2 and an estimated survival of at least 3 months. Patients with a previous history of deep venous thrombosis or pulmonary embolism were excluded.
(§6) Pre-treatment hydration consisted of 1 liter of 5% dextrose/0.45%saline containing 20 mEq of potassium chloride and 2 g magnesium sulfate administered over 4 hours. […] Patients were retreated every 3 weeks. On cycles where TAM was administered, 40 mg p.o. four doses per day were given on day 1 followed by 20 mg p.o. daily thereafter. The initial 7 patients were treated with a combination of lorazepam, metaclopramide, benadryl and dexamethasone to control nausea and vomiting. Subsequent patients received an ondansetron-based regimen.

melanoma [5] = settings: 203 treated melanoma patients; cited from earlier work
[6] = Toxicities with DDP or DDP/TAM treatment (clinical trial); settings: in words
From the text: as §5, §6

[7] = Steady-state plasma concentration of TAM; type: in vivo, human (patients); settings: predicted from in vitro data
Procedure: The design of the study of Example 1 itself was biased against response and the response rate in other settings would be higher. […] Chronic administration of TAM at 10 mg p.o. twice a day produces steady-state plasma concentrations in the range of 0.29 μM. However, the in vitro data predicts that plasma concentrations of more than 0.5 μM will be necessary in DDP-resistant patients.

[8] = system: cell lines of human origin; assay: Synergy of TAM and DDP: timing and mechanism observations; type: cell-based
[9] = read-out: IC50, one hour exposure to cisplatin
[10] = number of patients, DDP n=24, TAM/DDP n=20
[11] = Homo sapiens, read-out: IC50, continuous tamoxifen exposure

`N.N.[Cl][Pt][Cl]` [cisplatin, cis-diamminedichloroplatinum (II)] gave an IC50 (UM-SCC-10B cells; [9]) of 6.5 ± 0.6 µM, an IC50 ([1]; UM-SCC-5 selected in cisplatin, one hour cisplatin exposure, read-out: IC50 after the fifteenth selection) of 20.1 ± 1.2 µM and an IC50 ([2]; UM-SCC-10B selected in cisplatin, one hour cisplatin exposure, read-out: IC50 after the fifteenth selection) of 40.1 ± 1.2 µM. For the same molecule, the “time at which DDP resistance became apparent” value (T-289 melanoma cells; T-289 selection) was 200 days, the “duration of complete response” value (melanoma [3]; DDP alone) was “more than 15 months” and the “duration of partial response (stable off treatment)” value (melanoma [3]; DDP alone, one patient) was at least 6 months. For the same molecule, the “time to progression of patient with partial response” value (melanoma [3]; DDP alone, the other patient) was 4 months, the “Mixed Response” value (melanoma [3]; number of patients) was 0 patients and the “Progressive Disease” value (melanoma [3]; number of patients) was 19 patients. The “Stable Disease” value (melanoma [3]; number of patients) was 2 patients, the “Complete Response” value (melanoma [3]; [10]) was 1 patients and the “Partial Response” value (melanoma [3]; [10]) was 2 patients. For the same molecule, the “Complete Response” value (melanoma [3]; number of patients, DDP n=24, TAM/DDP n=20, listed as DDP) was “One”, the “Progressive Disease” value (melanoma [3]; number of patients, listed as DDP) was 17 patients and the “Complete Response (%)” value (melanoma [3]; percent of patients) was 4%. The “Partial Response (%)” value (melanoma [3]; percent of patients) was 8% and the IC50 (UM-SCC-5 cells; [9]) was 7.2 ± 1.5 µM.
With `Cc1nccn1CC1CCc2c(c3ccccc3n2C)C1=O` (centres unmarked) [ondonsetron, ondansetron] the nausea and vomiting [4] was “markedly reduced nausea and vomiting”.
For `CC/C(=C(\c1ccccc1)c1ccc(OCCN(C)C)cc1)c1ccccc1` [tamoxifen], the IC50 (UM-SCC-10B cells; [11]) was 3.56 ± 0.41 µM, the “effect on slope for emergence of cisplatin resistance” value ([1]; UM-SCC-5, tamoxifen present during selection, in words) was “no effect” and the “reduction of slope of regression line by tamoxifen” value ([2]; UM-SCC-10B) was “more than 40%”. For the same molecule, the “effect on development of cisplatin resistance” value ([2]; UM-SCC-10B) was “delayed the emergence of cisplatin resistance significantly”, the “effect on development of cisplatin resistance” value ([2]; UM-SCC-10B, listed as TAM) was “delay the development of DDP resistance” and the “response rate, single agent TAM therapy” value (melanoma [5]) was 6%. For the same molecule, the “effect on development of DDP resistance” value (T-289 melanoma cells; T-289, TAM given concurrently, in words) was “delay the development of DDP resistance”, the IC50 (UM-SCC-5 cells; [11]) was 3.22 ± 0.54 µM and the nephrotoxicity [6] was “uncommon and unaffected by the administration of TAM”. For the same molecule, the “toxicity on addition of TAM to single agent DDP” value [6] was “No increased toxicity”, the nausea and vomiting ([6]; during hospitalization for ondansetron) was “did not increase nausea or vomiting” and the “plasma concentration predicted necessary in DDP-resistant patients” value [7] was “more than 0.5 μM”. For the same molecule, the “synergy with DDP when TAM is added after DDP” value ([8]; TAM added up to 48 hours after end of 1 hour DDP exposure) was “can produce synergy with DDP” and the “effect of tamoxifen on known mechanisms of cisplatin resistance” value ([8]; drug uptake, glutathione or metallothionein levels, DNA intrastrand adduct formation or repair) was “not due to an effect of tamoxifen on the known mechanisms of cisplatin resistance”.
